Test results: paper PMC12356538, “Targeting the SARS-CoV‑2 RNA Translation Initiation Element SL1 by Molecules of Low Molecular Weight” (Journal of the American Chemical Society, 2025)
Where two headings read alike, the source gives them in different places.

Tests used:
SL1 Δbulge RNA = type: binding, SARS-CoV-2
[1] = tested on: SARS-CoV-2 SL1 RNA (SL1 wt); type: binding; conditions: for FBS binding to SL1, in words: ligand-detected NMR; for wLOGSY factor / T2 reduction [%] / CSP [Hz]: 10 μM SL1 wt, 200 μM ligand; for wLOGSY factor / T2 reduction [%]: pH 6.2; for T2 reduction [%]: CPMG 100 vs 5 ms; for Rank: FBS ranking from summed ranks of CSP, wLOGSY and T2 results; for CSP [Hz]: ligand 1H CSP, [RNA]:[ligand] 1:20, pH 6.2
SL1 wt RNA = experiment: NMR-based KD estimation, ligand-detected 1D-1H titration; type: binding, SARS-CoV-2; conditions: Suppl. Table 7; for Kd: read-out: KDest
[2] = ligand constant at 100, SL1 wt RNA concentration 0-200
[3] = ligand constant at 100, SL1 wt RNA concentration 0-250

Compound	FBS result (CSP, wLOGSY, T2 reduction) in words (SL1 Δbulge RNA)	FBS binding to SL1, in words ([1]; SL1 wt)	wLOGSY factor [1]	T2 reduction [%] [1]	Rank ([1]; SL1 wt)	CSP [Hz] [1]	further results
COc1ccc2nc(NC(=O)CN(C)C)oc2c1 [A.35]	no effects	did not show any improvement					
CN(C)CC(=O)Nc1nnc(-c2cc(F)c(Cl)c([N+](=O)[O-])c2Cl)s1 [A.43]	no effects		0.00	91.98%	31	8.40 Hz	
COc1ccc(-c2nnc(N)s2)cc1OC [A.23]		no hit					
COc1cc(OC)c2nc(NC(=O)CN3CCNCC3)sc2c1 [A.57]			0.00	100.00%	6	32.79 Hz	CSP [Hz] (SL1 Δbulge RNA): 4.92 Hz; Rank (SL1 Δbulge RNA): 8; T2 reduction [%] (SL1 Δbulge RNA): 47.32%; wLOGSY factor (SL1 Δbulge RNA): 1.07; Kd (SL1 wt RNA; [2]): 83.7 µM
COc1ccc2nc(NC(=O)CN3CCC[C@@H](NCCN(C)c4cccc(O)c4)C3)sc2c1 [A.50]	no effects		0.00	72.85%	33	15.17 Hz	KDest (SL1 wt RNA; [2]): ambiguous
COc1ccc2nc(NC(=O)CN3CCNCC3)sc2c1 [A.45]		positive effect on SL1 binding	1.54	86.71%	7	24.81 Hz	CSP [Hz] (SL1 Δbulge RNA): 7.08 Hz; Rank (SL1 Δbulge RNA): 7; T2 reduction [%] (SL1 Δbulge RNA): 60.81%; wLOGSY factor (SL1 Δbulge RNA): 0.00; Kd (SL1 wt RNA; [2]): 162 µM
CNC(=N)Nc1nc2ccc(O)cc2s1 [A.9]	no effects		0.66	72.21%	39	3.67 Hz	Kd (SL1 wt RNA; [3]): 436 µM
COc1cc(OC)c2nc(NC(=O)CN(C)Cc3ccccc3)sc2c1 [A.25]	no effects						
CN(C)CC(=O)Nc1nnc(-c2cc([N+](=O)[O-])cc([N+](=O)[O-])c2)s1 [A.41]	no effects		0.59	93.02%	21	13.68 Hz	
COc1ccc2nc(NC(=O)CN3CCC[C@@H](NCc4cccc(O)c4)C3)sc2c1 [A.53]	no effects		0.00	85.86%	28	21.03 Hz	
CN(C)CC(=O)Nc1nc2ccc(C(F)(F)F)cc2s1 [A.27]	no effects						
COc1ncc2nc(NC(=O)CN(C)C)sc2n1 [A.47]	no effects	did not show any improvement					
COc1ccc2nc(NC(=O)CN(C)Cc3cncnc3)sc2c1 [A.33]		detrimental to binding to SL1					
COc1cc(OC)c2nc(NC(=O)CN3CCC[C@@H](N)C3)sc2c1 [A.55]	no effects		0.00	100.00%	5	34.05 Hz	Kd (SL1 wt RNA; [2]): 81.1 µM
CCN(CCN[C@H]1CCCN(CC(=O)Nc2nc3ccc(OC)cc3s2)C1)c1cccc(O)c1 [A.49]	no effects		0.00	72.85%	34	15.15 Hz	Kd (SL1 wt RNA; [2]): 530 µM
COc1ccc2nc(NC(=O)CN(C)C3CC(C)(C)NC(C)(C)C3)sc2c1 [A.44]	no effects		1.19	76.80%	27	12.99 Hz	
COc1cc(OC)c2nc(NC(=O)CN3CCN(C)CC3)sc2c1 [A.56]	no effects		0.00	100.00%	7	31.95 Hz	Kd (SL1 wt RNA; [2]): 75.3 µM
CC(C)(C)C(=O)Nc1nc2ccc(Br)cc2s1 [A.8]	no effects	only minor effects					Kd (SL1 wt RNA; [3]): 254 µM
CN(C)CC(=O)Nc1nc2ccc(Br)cc2s1 [A.16]	no effects		0.74	83.00%	17	27.60 Hz	CSP values relative to A.2 ([1]; ligand CSP, SL1 wt): 2–3 times
CN(C)CC(=O)Nc1nc2ccc(N)cc2s1 [A.24]	no effects	among the weakest binders	0.49	69.42%	35	11.40 Hz	

Compound	FBS result (CSP, wLOGSY, T2 reduction) in words (SL1 Δbulge RNA)	FBS binding to SL1, in words ([1]; SL1 wt)	wLOGSY factor [1]	T2 reduction [%] [1]	Rank ([1]; SL1 wt)	CSP [Hz] [1]	further results
COc1ccc(-c2nnc(NC(=O)CN3CCC[C@@H](N)C3)s2)cc1OC [A.59]			0.00	98.00%	10	38.70 Hz	CSP [Hz] (SL1 Δbulge RNA): 9.18 Hz; Rank (SL1 Δbulge RNA): 4; T2 reduction [%] (SL1 Δbulge RNA): 65.47%; wLOGSY factor (SL1 Δbulge RNA): 0.00; Kd (SL1 wt RNA; [2]): 90.7 µM; scoring in the FBS ranking compared with lead A ([1]; SL1 wt): ~4 fold
CN(C)CC(=O)Nc1nc2ccc(S(C)(=O)=O)cc2s1 [A.32]	no effects		0.22	46.43%	41	6.54 Hz	
COc1ccc2nc(N(C)C(=O)CN(C)C)sc2c1 [A.34]		slightly higher affinity	2.15	81.54%	13	19.56 Hz	
CC(C)(C)C(=O)Nc1nc2ccccc2s1 [A.7]		only minor effects					
COc1ccc2nc(NC(=O)CN3CCC[C@H](NCCN(C)c4cccc(O)c4)C3)sc2c1 [A.48]			0.00	74.30%	32	17.28 Hz	CSP [Hz] (SL1 Δbulge RNA): 2.16 Hz; Rank (SL1 Δbulge RNA): 9; T2 reduction [%] (SL1 Δbulge RNA): 0.59%; wLOGSY factor (SL1 Δbulge RNA): 10.82; Kd (SL1 wt RNA; [2]): 304 µM
CN(C)CC(=O)Nc1nc2cnc(Cl)nc2s1 [A.46]	no effects	did not show any improvement					
CN(C)CC(=O)Nc1nc2ccc(O)cc2s1 [A.12]		among the weakest binders	0.15	69.00%	40	10.02 Hz	
COc1cc(OC)c2nc(NC(=O)CN3CCC[C@H](N)C3)sc2c1 [A.54]			0.00	100.00%	4	34.62 Hz	CSP [Hz] (SL1 Δbulge RNA): 3.60 Hz; Rank (SL1 Δbulge RNA): 5; T2 reduction [%] (SL1 Δbulge RNA): 88.68%; wLOGSY factor (SL1 Δbulge RNA): 0.00; Kd (SL1 wt RNA; [2]): 109 µM
COc1ccc(-c2nnc(N)s2)cc1 [A.22]		no hit					
CN(C)CC(=O)Nc1nnc(-c2ccc([N+](=O)[O-])cc2)s1 [A.42]	no effects		0.90	86.63%	24	12.36 Hz	
CSc1ccc2nc(NC(=O)CN(C)C)sc2c1 [A.19]	no effects		0.46	87.00%	18	25.08 Hz	
COc1ccc2nc(NC(=O)CN3CCN(C)CC3)sc2c1 [A.18]	no effects	positive effect on SL1 binding	0.80	91.00%	12	22.14 Hz	
COCCN(C)CC(=O)Nc1nc2ccc(OC)cc2s1 [A.30]			0.14	77.69%	35	10.44 Hz	
CC(=O)Nc1nc2ccccc2s1 [A.6]		only minor effects					
COc1ccc2nc(NC(=O)CN3CCC[C@H](NCc4cccc(O)c4)C3)sc2c1 [A.52]	no effects		0.00	83.78%	29	20.01 Hz	
COc1ccc(-c2nnc(NC(=O)CN(C)C)s2)cc1 [A.21]			1.43	95.00%	13	12.57 Hz	
COc1ccc2nc(NC(=O)CN3CCN(C)CC3)[nH]c2c1 [A.40]	no effects	reduced activity	0.68	41.23%	37	9.48 Hz	
COc1ccc2nc(NC(=O)CN(C)C)sc2n1 [A.38]	no effects	did not show any improvement	1.22	73.62%	23	16.14 Hz	
COc1ccc2nc(NC(=O)CN(C)C)[nH]c2c1 [A.20]	no effects	higher score than that of A.2	0.62	87.00%	15	25.08 Hz	
CN(C)CC(=O)Nc1nc2ccc(OC(F)(F)F)cc2s1 [A.28]	no effects		1.01	85.67%	21	13.56 Hz	
